Assay results published in the NIST ThermoML archive (doi:10.1021/je900596d).

Details: 263.49 K, Liquid, Vibrating tube method

FC(F)=C(F)C(F)(F)F [hexafluoropropene]
Details | mass density [kg/m3]
1283.2 kPa | 1467.96
1321.2 kPa | 1468.22
1359 kPa | 1468.47
1389.9 kPa | 1468.56
1425.3 kPa | 1468.74
1461.6 kPa | 1468.94
1497.9 kPa | 1469.16
1539.1 kPa | 1469.32
1576.4 kPa | 1469.48
1610 kPa | 1469.68
1646.8 kPa | 1469.96
1683.2 kPa | 1470.1
1718.2 kPa | 1470.09
1769.7 kPa | 1470.55
1804.7 kPa | 1470.64
1839 kPa | 1470.88
1873.5 kPa | 1471.02
1912.3 kPa | 1471.22
1948.3 kPa | 1471.32
1983.7 kPa | 1471.42
2017.6 kPa | 1471.69
2077.4 kPa | 1472.02
2137.9 kPa | 1472.31
2195.3 kPa | 1472.62
2252 kPa | 1472.79
2309.6 kPa | 1473.18
2367.3 kPa | 1473.43
2430.6 kPa | 1473.71
2489.1 kPa | 1474.06
2551.6 kPa | 1474.23
2614.8 kPa | 1474.71
2675.4 kPa | 1474.88
2733.4 kPa | 1475.13
2790.5 kPa | 1475.34
2848.5 kPa | 1475.67
2905.6 kPa | 1475.93
2969.6 kPa | 1476.29
3029.8 kPa | 1476.52
3093.3 kPa | 1476.76
3152.2 kPa | 1477.08
3211.2 kPa | 1477.32
3270.4 kPa | 1477.64
3327.3 kPa | 1477.91
3384.6 kPa | 1478.13
3443.8 kPa | 1478.55
3501.1 kPa | 1478.67
3558.2 kPa | 1479.03
3616.7 kPa | 1479.25
3674.3 kPa | 1479.49
3737.9 kPa | 1479.79
3796.5 kPa | 1480.12
3856.1 kPa | 1480.36
3913.3 kPa | 1480.59
3976.1 kPa | 1480.92
4010.9 kPa | 1481.02
4071.8 kPa | 1481.39
4136 kPa | 1481.55
4197.2 kPa | 1481.92
4261.2 kPa | 1482.25
4322.1 kPa | 1482.4
4382.2 kPa | 1482.79
4447.1 kPa | 1482.98
4507.5 kPa | 1483.36
4568.4 kPa | 1483.61
4635.4 kPa | 1483.93
4696.7 kPa | 1484.25
